# Results published in patent publication US10125112B2, “Modulators of the relaxin receptor 1” (The United States of America, as Represented by the …, priority 2012, dated 2018).
# pEC50: −log10 of the molar value.
# Assays:
# [1] = ATP Cytotoxicity assay (ATPLite) in HEK293-RXFP1 cells; type: cell-based; details: human, inactive = Maximum response less than 30%, read-out: ATP Tox. EC50 (μM, Max. Resp.): EC50
# Protocol: This follow-up assay was conducted to measure the effect of compounds on cell viability by measuring ATP levels (ATPLite™). ATPLite™ is an Adenosine TriPhosphate (ATP) monitoring system based on firefly (Photinus pyralis) luciferase. The level of ATP in a metabolically active cell is a general marker for its viability. ATP levels are often reduced during necrosis or apoptosis. In this assay, the luciferase enzyme catalyzes the conversion of the added substrate D-luciferin to oxyluciferin and light with ATP. Thus, the emitted light is proportional to the ATP concentration. […] After compound incubation, the levels of ATP in each well were measured with the addition of the ATPLite assay reagent.
# RXFP1 = molecular target: T1, RXFP1 (Homo sapiens, UniProt Q9HBX9); assay: RXFP1 cAMP assay in HEK293-RXFP1 cells (HTRF); type: cell-based; details: percentage of the maximal receptor activation induced by high concentrations of forskolin; Tables 1-7; read-out: Max Response
# T1 construct: expressed in transfected cells
# T1 sequence (Q9HBX9 1-757): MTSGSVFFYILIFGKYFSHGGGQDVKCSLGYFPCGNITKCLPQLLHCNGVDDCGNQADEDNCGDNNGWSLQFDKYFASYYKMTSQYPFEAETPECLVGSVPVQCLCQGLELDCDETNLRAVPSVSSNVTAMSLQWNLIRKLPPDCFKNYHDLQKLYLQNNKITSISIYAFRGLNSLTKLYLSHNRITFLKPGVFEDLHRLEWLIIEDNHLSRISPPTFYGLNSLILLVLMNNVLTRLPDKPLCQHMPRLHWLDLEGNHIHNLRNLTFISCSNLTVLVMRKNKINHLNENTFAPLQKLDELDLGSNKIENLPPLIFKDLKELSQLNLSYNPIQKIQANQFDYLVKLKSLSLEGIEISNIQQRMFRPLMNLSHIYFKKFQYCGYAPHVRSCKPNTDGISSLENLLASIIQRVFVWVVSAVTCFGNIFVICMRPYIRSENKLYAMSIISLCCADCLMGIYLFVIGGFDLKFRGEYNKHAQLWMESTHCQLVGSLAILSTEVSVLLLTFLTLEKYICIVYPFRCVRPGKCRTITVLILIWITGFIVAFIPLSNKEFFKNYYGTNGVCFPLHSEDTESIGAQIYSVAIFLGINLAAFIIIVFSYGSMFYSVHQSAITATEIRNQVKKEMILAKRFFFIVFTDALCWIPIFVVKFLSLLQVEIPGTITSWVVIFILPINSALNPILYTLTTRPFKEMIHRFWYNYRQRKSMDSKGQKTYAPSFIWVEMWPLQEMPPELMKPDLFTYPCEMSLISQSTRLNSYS
# Protocol: The RXFP1 receptor couples to the Gs protein, and activation of the receptor results in stimulation of cAMP production. […] The TR-FRET between the K-α-cAMP and cAMP-d2 is disrupted by cAMP in the cell lysates, thus allowing TR-FRET detection in a homogenous format that is suitable for HTS. […] The primary screen was carried out in 1536-well format, however, because of a more robust signal to background ratio, all subsequent follow-up experiments were carried out in 384-well format.
# For the primary screen, HEK293-RXFP1 cells were seeded at 2,000 cells/well in 3 μL/well media with a MultiDrop Combi dispenser (Thermo Scientific, Logan, Utah), and allowed to attach overnight at 37° C., 5% CO2. […] The cells were allowed to be stimulated with the compounds for 30 minutes at 37° C., 5% CO2, after which, 1 μL/well of each HTRF detection reagent was dispensed with a BioRAPTR FRD dispenser. The detection reagents were diluted before addition as follows: K-α-cAMP antibody at 1:20 and cAMP-d2 at 1:18 in HTRF lysis buffer (supplied by the assay kit). The plates were incubated for 30 minute at room temperature, and then the signal was read on a ViewLux plate reader (PerkinElmer, Waltham, Mass.).
# The assay was run according to the following protocol:
# Max Response indicates what the maximal amount of functional activity induced by the compound is, as a percentage of the maximal receptor activation induced by high concentrations of forskolin.
# vasopressin receptor 1b = molecular target: T2, vasopressin receptor 1b (Homo sapiens, UniProt P47901); assay: V1b cAMP assay in HEK293-V1b cells; type: cell-based; details: inactive = Maximum response less than 30%
# T2 construct: expressed in transfected cells
# T2 sequence (P47901 1-424): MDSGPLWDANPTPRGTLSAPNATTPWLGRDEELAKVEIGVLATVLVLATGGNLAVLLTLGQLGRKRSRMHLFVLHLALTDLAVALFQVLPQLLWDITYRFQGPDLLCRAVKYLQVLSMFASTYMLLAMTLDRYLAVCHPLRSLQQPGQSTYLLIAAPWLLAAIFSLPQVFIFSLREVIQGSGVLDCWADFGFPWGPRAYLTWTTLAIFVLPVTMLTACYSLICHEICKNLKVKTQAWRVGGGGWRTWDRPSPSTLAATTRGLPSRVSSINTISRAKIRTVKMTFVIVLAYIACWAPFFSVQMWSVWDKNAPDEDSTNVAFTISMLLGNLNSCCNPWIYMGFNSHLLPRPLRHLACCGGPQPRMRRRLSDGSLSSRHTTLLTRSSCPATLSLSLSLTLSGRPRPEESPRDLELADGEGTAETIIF
# Protocol: HEK293 stably transfected with a nonrelated G protein coupled receptor, vasopressin receptor 1b (HEK293-V1b), were used as an additional counter screen to eliminate compounds that increase cAMP HTRF signal through non-RXFP1 dependent mechanisms. For this assay, cells were seeded at 8,000 cells/well in 30 µL/well media with a MultiDrop Combi dispenser (Thermo Scientific, Logan, Utah), and allowed to attach overnight at 37° C., 5% CO2. Next, 2 μL/well of 1.6 mM Ro 20-1724 solution in PBS+(DPBS, 1 mM CaCl2, 0.5 mM MgCl2, 0.05% BSA, 0.005% Tween 20) was dispensed using a BioRAPTR FRD dispenser (Beckman Coulter, Brea, Calif.), followed by additional of 0.25 μL/well of compound solution in DMSO with CyBi-well dispenser (CyBio, Jena, Germany). The cells were allowed to be stimulated with the compounds for 30 minutes at 37° C., 5% CO2, after which, 8 μL/well of each HTRF detection reagent (diluted according to assay kit directions in HTRF lysis buffer) was dispensed with a BioRAPTR FRD dispenser. The plates were incubated for 30 minute at room temperature, and then the signal was read on a ViewLux plate reader (PerkinElmer, Waltham, Mass.).
# PBS solubility = type: physicochemical
# RXFP2 = molecular target: T3, RXFP2 (Homo sapiens, UniProt Q8WXD0); assay: RXFP2 cAMP assay in HEK293-RXFP2 cells; type: cell-based; details: for Emax: 0.5 h, read-out: RXFP2 AC50 (μM, Max. Resp.): Max. Resp.; for AC50: HEK293-RXFP2 cells, inactive = Maximum response less than 30%, read-out: RXFP2 AC50 (μM, Max. Resp.): AC50
# T3 construct: expressed in transfected cells
# Protocol: HEK293 cells stably transfected with RXFP2, the cognate receptor for another relaxin family peptide, insulin-like 3, (HEK293-RXFP2) was used to test compound specificity towards the RXFP1 receptor. For this assay, cells were seeded at 8,000 cells/well in 30 µL/well of media with a MultiDrop Combi dispenser (Thermo Scientific), and allowed to attach overnight at 37° C., 5% CO2. Next, 2 µL/well of 1.6 mM Ro 20-1724 solution in PBS+(DPBS, 1 mM CaCl2, 0.5 mM MgCl2, 0.05% BSA, 0.005% Tween 20) were dispensed using a BioRAPTR FRD dispenser (Beckman Coulter, Brea, Calif.), followed addition of 0.25 μL/well of compound solution in DMSO with CyBi-well dispenser (CyBio, Jena, Germany). The cells were allowed to be stimulated with the compounds for 30 minutes at 37° C., 5% CO2, after which, 8 μL/well of each HTRF detection reagent (diluted according to assay kit directions in HTRF lysis buffer) was dispensed with a BioRAPTR FRD dispenser. The plates were incubated for 30 minute at 37° C., and then the signal was read on a ViewLux plate reader (PerkinElmer, Waltham, Mass.).
# cAMP in THP-1 cells = assay: cyclic AMP assay in THP-1 cells; type: cell-based; details: Homo sapiens, THP-1, 0.5 h
# Protocol: This Example illustrates the cyclic AMP assay in THP-1 cells. THP-1 cells were propagated in RPMI-1640 supplemented with 20% FBS, 0.05 mM β-mercaptoethanol, 100 U/mL penicillin and 100 μg/mL streptomycin at 37° C. in 5% CO2. Before assaying for cAMP response, cells were serum starved in RPMI-1640 supplemented with 0.05 mM (3-mercaptoethanol, 100 U/mL penicillin and 100 μg/mL streptomycin at 37° C. in 5% CO2 for 16 hrs. For 384-well format assays, cells were seeded as 30,000 cells/well in 30 μL/well media with a MultiDrop Combi dispenser (Thermo Scientific, Waltham, Mass.). Subsequently, 2 μL/well of 1.6 mM Ro 20-1724 and 160 uM forskolin in PBS+ (DPBS, 1 mM CaCl2, 0.5 mM MgCl2, 0.05% BSA, 0.005% Tween 20) was dispensed using a BioRAPTR FRD dispenser (Beckman Coulter, Brea, Calif.). Immediately after, 0.25 μL/well of compound solutions in DMSO was dispensed with CyBi-well dispenser (CyBio, Jena, Germany). The cells were allowed to be stimulated with compounds for 30 min at 37° C. in 5% CO2, after which, 8 μL/well of each HTRF cAMP HiRange kit (CisBio, Bedford, Mass.) detection reagent was dispensed with a BioRAPTR FRD dispenser. The detection reagents were diluted as such: K-α-cAMP antibody at 1:20 and cAMP-d2 at 1:18 in HTRF lysis buffer (supplied by the assay kit). The plates were incubated for 30 min at room temperature before the signal was read on an Envision plate reader (PerkinElmer, Waltham, Mass.).
# T3 sequence (Q8WXD0 whole entry, species assumed): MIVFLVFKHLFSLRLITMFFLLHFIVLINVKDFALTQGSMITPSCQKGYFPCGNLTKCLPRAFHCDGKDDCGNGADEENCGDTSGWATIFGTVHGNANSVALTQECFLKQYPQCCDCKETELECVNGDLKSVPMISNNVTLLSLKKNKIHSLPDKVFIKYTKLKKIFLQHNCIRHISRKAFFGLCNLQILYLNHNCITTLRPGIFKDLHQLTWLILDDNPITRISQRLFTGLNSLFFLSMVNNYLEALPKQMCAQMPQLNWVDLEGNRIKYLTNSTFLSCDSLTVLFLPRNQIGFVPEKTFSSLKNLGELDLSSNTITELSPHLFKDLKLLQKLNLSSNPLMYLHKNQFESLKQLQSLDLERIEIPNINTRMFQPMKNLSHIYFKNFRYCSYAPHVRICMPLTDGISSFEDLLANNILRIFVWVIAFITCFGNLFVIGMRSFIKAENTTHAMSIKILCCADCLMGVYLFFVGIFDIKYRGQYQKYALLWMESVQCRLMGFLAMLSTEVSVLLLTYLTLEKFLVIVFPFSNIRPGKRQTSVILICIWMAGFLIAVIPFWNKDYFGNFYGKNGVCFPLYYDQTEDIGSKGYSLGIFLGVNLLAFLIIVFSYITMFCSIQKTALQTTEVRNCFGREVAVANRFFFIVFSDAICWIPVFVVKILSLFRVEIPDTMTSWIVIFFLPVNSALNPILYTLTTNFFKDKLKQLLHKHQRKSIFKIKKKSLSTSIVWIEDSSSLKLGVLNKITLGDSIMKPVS
Compound,EC50 at 72 h [1] [µM],Emax (RXFP1) [%],"V1b AC50 (μM, Max. Resp.): AC50 (vasopressin receptor 1b)",PBS Solubility (PBS solubility) [µM],Emax (RXFP2) [%],AC50 (RXFP2) [µM],pEC50 (cAMP in THP-1 cells),solubility (PBS solubility; aqueous buffer) [µM]
CCCOc1ccccc1C(=O)Nc1ccccc1C(=O)Nc1cccc(S(=O)(=O)C(F)(F)F)c1 [Example 179],9.4,98,,,,,,
"CCOc1ccccc1C(=O)Nc1ccccc1C(=O)Nc1cccc(S(=O)(=O)C(F)(F)F)c1 [Example 174, 2-Ethoxy-N-(2-((3-((trifluoromethyl)sulfonyl)phenyl)carbamoyl)phenyl)benzamide]",,,inactive^a,<1.1,38,7.47,6.44,
COc1ccccc1C(=O)Nc1ccccc1C(=O)Nc1cccc(SC(F)(F)F)c1 [Example 158],3.74,99,,,54,3.34,,2.9
